Assay results from patent US9120774B2 (University of Kansas, priority 2009, dated 2015).
Like-named read-outs stand apart in the source and are kept apart here. Each block holds one compound with its values, some of them ahead of it.

Columns and labels:
Type in all cases: cell-based
[1] = system: MM2 (metastatic mammary tumor cancer cells); assay: Anti-proliferation activity against MM2 cells (MTS/PMS)
Method: (§1) Cells were maintained in a 1:1 mixture of Advanced DMEM/F12 (Gibco) supplemented with non-essential amino acids, L-glutamine (2 mM), streptomycin (500 μg/mL), penicillin (100 units/mL), and 10% FBS. Cells were grown to confluence in a humidified atmosphere (37° C., 5% CO2), seeded (2000/well, 100 μL) in 96-well plates, and allowed to attach overnight. Compound or GDA at varying concentrations in DMSO (1% DMSO final concentration) was added, and cells were returned to the incubator for 72 hours. At 72 hours, the number of viable cells was determined using an MTS/PMS cell proliferation kit (Promega) per the manufacturer's instructions. Cells incubated in 1% DMSO were used at 100% proliferation, and values were adjusted accordingly. IC50 values were calculated from separate experiments performed in triplicate using GraphPad Prism.

[2] = system: A549 (human alveolar basal epithelial cells); assay: Anti-proliferation activity against A549 cells (MTS/PMS)
Method: as §1

[3] = system: LN3 (metastatic human prostate cancer cells); assay: Anti-proliferation activity against LN3 cells (MTS/PMS)
Method: as §1

[4] = system: MCF-7 (estrogen receptor positive breast cancer cells); assay: Anti-proliferation activity against MCF-7 cells (MTS/PMS)
In short: (§2)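 Cells seeded at 2000/well, attached overnight, then exposed to compound at varying concentrations (1% DMSO final) for 72 hours at 37° C. Viable cells read by MTS/PMS, normalised to 1% DMSO as 100% proliferation. IC50 from separate triplicate experiments.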

[5] = system: SkBr3 (Her2 overexpressing breast cancer cells); assay: Anti-proliferation activity against SkBr3 cells (MTS/PMS)
In short: as §2

[6] = system: cancer cell lines; assay: Anti-proliferative activity, statements covering several cancer cell lines
Method: Upon completion of synthesis of library of compounds in Examples 23 and 24, the compounds were evaluated for anti-proliferative activity against SkBr3 (Her2 overexpressing breast cancer cells), MCF-7 (estrogen receptor positive breast cancer cells), HCT-116 (colon cancer cells characterized by wild-type p53), PL45 (pancreatic cancer cells), LNCaP (androgen sensitive prostate cancer cells) and PC-3 (androgen independent prostate cancer cells) cell lines. […] The monosubstituted benzamide variants improved activity.
as §1, with “ng/mL),” for “μg/mL),”, “μl)” for “μL)”
as §1

[7] = system: PC-3 (androgen independent prostate cancer cells); assay: Anti-proliferation activity against PC-3 cells; conditions: Homo sapiens, PC-3; Table 2; n = 3; read-out: IC50 PC-3
In short: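 Antiproliferative activity was tested in PC-3 androgen-independent prostate cancer cells. Cells grown at 37° C. with 5% CO2 in Advanced DMEM/F12 (1:1) containing non-essential amino acids, 2 mM L-glutamine, streptomycin, penicillin and 10% FBS were plated at 2000/well in 96-well plates. Proliferation was normalized to 1% DMSO controls, and IC50 values from triplicate experiments were fitted in GraphPad Prism.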

[8] = system: PL45 (pancreatic cancer cells); assay: Anti-proliferation activity against PL45 cells; conditions: Table 2, n = 3
[9] = system: HCT-116 (colon cancer cells characterized by wild-type p53); assay: Anti-proliferation activity against HCT-116 cells; conditions: Homo sapiens, Table 2, n = 3
[10] = system: LNCaP (androgen sensitive prostate cancer cells); assay: Anti-proliferation activity against LNCaP cells; conditions: Homo sapiens, LNCaP; Table 2; n = 3; read-out: IC50 LNCaP
In short: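 Cells seeded at 2000/well in Advanced DMEM/F12 with 10% FBS and attached overnight, then given compound in 1% DMSO final for 72 h at 37 °C, 5% CO2. Viable cells by MTS/PMS read-out, normalised to 1% DMSO as 100% proliferation. IC50 from separate triplicate experiments.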

[11] = Table 20, indole-2-carboxamide analogues with noviose replacements
[12] = Homo sapiens, A549, Table 20, indole-2-carboxamide analogues with noviose replacements
[13] = Homo sapiens, Table 20, indole-2-carboxamide analogues with noviose replacements
[14] = Homo sapiens, MCF7, Table 20, indole-2-carboxamide analogues with noviose replacements, read-out: IC50, MCF-7
[15] = Homo sapiens, SK-BR-3, Table 20, indole-2-carboxamide analogues with noviose replacements, read-out: IC50, SKBr3
[16] = Table 9, azasugar analogues on 8-methyl coumarin, 72 hours
[17] = Table 9, azasugar analogues on 8-methyl coumarin, 72 hours, read-out: IC50 MCF-7
[18] = Table 9, azasugar analogues on 8-methyl coumarin, 72 hours, read-out: IC50 SKBr3
[19] = Table 12, aliphatic chain analogues, 72 hours
[20] = Homo sapiens, A549, Table 12, aliphatic chain analogues, 72 hours
[21] = Homo sapiens, Table 12, aliphatic chain analogues, 72 hours
[22] = Homo sapiens, MCF7, Table 12, aliphatic chain analogues, 72 hours, read-out: IC50 MCF-7
[23] = Homo sapiens, SK-BR-3, Table 12, aliphatic chain analogues, 72 hours, read-out: IC50 SKBr3
[24] = Table 8, unsaturated azasugar analogues, 72 hours
[25] = Table 10, azasugar analogues on 6-methoxy coumarin, 72 hours
[26] = Homo sapiens, A549, Table 10, azasugar analogues on 6-methoxy coumarin, 72 hours
[27] = Homo sapiens, Table 10, azasugar analogues on 6-methoxy coumarin, 72 hours
[28] = Homo sapiens, MCF7, Table 10, azasugar analogues on 6-methoxy coumarin, 72 hours, read-out: IC50 MCF-7
[29] = Homo sapiens, SK-BR-3, Table 10, azasugar analogues on 6-methoxy coumarin, 72 hours, read-out: IC50 SKBr3
[30] = Table 13, various sugars on 8-methyl coumarin, 72 hours

IC50 [1, 11]: 11.4 ± 6.56 µM
IC50 [2, 12]: 3.91 µM
IC50 [3, 13]: 11.8 ± 0.68 µM
IC50 [4, 14]: 0.57 ± 0.04 µM
IC50 [5, 15]: 0.48 ± 0.11 µM
SMILES: Cc1c(OC2CCN(C)CC2)ccc2cc(NC(=O)c3cc4ccccc4[nH]3)c(=O)oc12 [KU-361]

IC50 [1, 11]: 42.8 µM
IC50 [2, 12]: > 100 µM
IC50 [3, 13]: 14.8 µM
IC50 [4, 14]: 0.69 ± 0.12 µM
IC50 [5, 15]: 0.15 ± 0.06 µM
SMILES: COc1cc2cc(NC(=O)c3cc4ccccc4[nH]3)c(=O)oc2c(C)c1OC1CCCN(C)C1 (stereo not drawn) [KU-366]

IC50 [1, 19]: 6.2 µM
IC50 [2, 20]: 8.8 µM
IC50 [3, 21]: 5.22 µM
IC50 [4, 22]: 3.08 ± 0.12 µM
IC50 [5, 23]: 1.77 ± 0.15 µM
SMILES: COc1cccc(-c2cc(C(=O)Nc3cc4ccc(OCCN(C)C)c(OC)c4oc3=O)ccc2OC)c1 [KU-292]

IC50 [1, 25]: 2.84 µM
IC50 [2, 26]: 1.99 µM
IC50 [3, 27]: 4.07 µM
IC50 [4, 28]: 1.79 ± 0.11 µM
IC50 [5, 29]: 1.19 ± 0.21 µM
SMILES: COc1cccc(-c2cc(C(=O)Nc3cc4cc(OC)c(OC5CCN(C)CC5)c(C)c4oc3=O)ccc2OC)c1 [KU-287]

IC50 [1, 25]: 4.47 µM
IC50 [2, 26]: 3.19 µM
IC50 [3, 27]: 6.63 µM
IC50 [4, 28]: 1.41 ± 0.16 µM
IC50 [5, 29]: 1.49 ± 0.07 µM
SMILES: COc1cccc(-c2cc(C(=O)Nc3cc4cc(OC)c(OC5CCCN(C)C5)c(C)c4oc3=O)ccc2OC)c1 (stereo not drawn) [KU-281]

IC50 [1, 25]: 4.02 µM
IC50 [2, 26]: 3.5 µM
IC50 [3, 27]: 5.27 µM
IC50 [4, 28]: 2.82 ± 1.38 µM
IC50 [5, 29]: 1.2 ± 0.1 µM
SMILES: COc1cccc(-c2cc(C(=O)Nc3cc4cc(OC)c(OC5CCNCC5)c(C)c4oc3=O)ccc2OC)c1 [KU-286]

IC50 [1, 19]: 4.87 µM
IC50 [2, 20]: 2.21 µM
IC50 [3, 21]: 4.71 µM
IC50 [4, 22]: 1.29 ± 0.21 µM
IC50 [5, 23]: 1.42 ± 0.26 µM
SMILES: COc1cccc(-c2cc(C(=O)Nc3cc4cc(OC)c(OCCN(C)C)c(C)c4oc3=O)ccc2OC)c1 [KU-294]

IC50 [1, 19]: 12.8 µM
IC50 [2, 20]: 13.1 µM
IC50 [3, 21]: 37.5 µM
IC50 [4, 22]: 0.5 ± 0.04 µM
IC50 [5, 23]: 0.6 ± 0.01 µM
SMILES: COc1cccc(-c2cc(C(=O)Nc3cc4ccc(OCCCN(C)C)c(C)c4oc3=O)ccc2OC)c1 [KU-317]

IC50 [1, 11]: 0.87 ± 0.57 µM
IC50 [2, 12]: 0.59 µM
IC50 [3, 13]: 1.47 ± 0.66 µM
IC50 [4, 14]: 0.52 ± 0.05 µM
IC50 [5, 15]: 0.11 ± 0.01 µM
SMILES: COc1cc2cc(NC(=O)c3cc4ccccc4[nH]3)c(=O)oc2c(C)c1OC1CCN(C)CC1 [KU-363]

IC50 [1, 19]: 4.08 µM
IC50 [2, 20]: 3.43 µM
IC50 [3, 21]: 8.03 µM
IC50 [4, 22]: 1.53 ± 0.18 µM
IC50 [5, 23]: 0.91 ± 0.17 µM
SMILES: COc1cccc(-c2cc(C(=O)Nc3cc4ccc(OCCCN(C)C)c(OC)c4oc3=O)ccc2OC)c1 [KU-319]

IC50 ([1]; Table 11, azasugar analogues on 8-methoxy coumarin, 72 hours): 3.71 µM
IC50 ([2]; Homo sapiens, A549, Table 11, azasugar analogues on 8-methoxy coumarin, 72 hours): 3.06 µM
IC50 ([3]; Homo sapiens, Table 11, azasugar analogues on 8-methoxy coumarin, 72 hours): 4.75 µM
IC50 ([4]; Homo sapiens, MCF7, Table 11, azasugar analogues on 8-methoxy coumarin, 72 hours, read-out: IC50 MCF-7): 1.39 ± 0.35 µM
IC50 ([5]; Homo sapiens, SK-BR-3, Table 11, azasugar analogues on 8-methoxy coumarin, 72 hours, read-out: IC50 SKBr3): 0.97 ± 0.09 µM
SMILES: COc1cccc(-c2cc(C(=O)Nc3cc4ccc(OC5CCN(C)CC5)c(OC)c4oc3=O)ccc2OC)c1 [KU-275]

More lines, now with the values behind:

SMILES: CO[C@@H]1[C@@H](O)[C@@H](O)[C@H](Oc2ccc3cc(NC(=O)OCc4ccccc4)c(=O)oc3c2C)OC1(C)C [24, KU-249]
IC50 [1, 16]: 7.75 µM
IC50 [2, 16]: 4.07 µM
IC50 [3, 16]: 6.73 µM
IC50 [4, 17]: 2.07 ± 1.1 µM
IC50 [5, 18]: 2.91 ± 1.1 µM

SMILES: CO[C@@H]1[C@@H](O)[C@@H](O)[C@H](Oc2ccc3cc(NC(=O)c4ccccc4N)c(=O)oc3c2C)OC1(C)C [18 KU-260]
IC50 [1, 24]: 4.36 µM
IC50 [2, 24]: 1.42 µM
IC50 [3, 24]: 4.23 µM
IC50 ([4]; Table 8, unsaturated azasugar analogues, 72 hours, read-out: IC50 MCF-7): 1.73 µM
IC50 ([5]; Table 8, unsaturated azasugar analogues, 72 hours, read-out: IC50 SKBr3): 1.61 ± 0.1 µM

SMILES: CC(C)=CCc1cc(C(=O)Nc2cc3ccc(O[C@@H]4C[C@H](O)CCO4)c(C)c3oc2=O)ccc1O [18b, KU-430, 4-Hydroxy-N-(7-((2R,4R)-4-hydroxytetrahydro-2H-pyran-2-yloxy)-8-methyl-2-oxo-2H-chromen-3-yl)-3-(3-methylbut-2-enyl)benzamide]
times/fold more active than DHN2 (anti-proliferative activity) [6]: ~3 fold
times/fold more active than novobiocin (anti-proliferative activity) [6]: ~200 fold
IC50 ([4]; Homo sapiens, MCF7, Table 18, modified furanose or pyranose noviose replacements, read-out: IC50, MCF7): 1.56 ± 0.09 µM
IC50 ([4]; Homo sapiens, MCF7, text of Example 47, read-out: IC50 MCF-7): 1.56 ± 0.2 µM
IC50 ([5]; Homo sapiens, SK-BR-3, Table 18, modified furanose or pyranose noviose replacements, read-out: IC50, SKBr3): 3.11 ± 0.19 µM
IC50 ([5]; Homo sapiens, SK-BR-3, text of Example 47, read-out: IC50 SKBr3): 3.11 ± 0.03 µM

SMILES: COc1ccc(C(=O)Nc2cc3ccc(O[C@@H]4OC(C)(C)[C@H](OC)[C@@H](O)[C@H]4O)c(C)c3oc2=O)cc1-c1ccccc1 [28, KU-252]
IC50 [1, 16]: 2.99 µM
IC50 [3, 16]: 0.35 µM
IC50 [4, 17]: 29.4 ± 8.4 µM
IC50 [5, 18]: 5.41 ± 0.8 µM

SMILES: CO[C@@H]1[C@@H](O)[C@@H](O)[C@H](Oc2ccc3cc(NC(=O)C=Cc4ccccc4)c(=O)oc3c2C)OC1(C)C [25, KU-254]
IC50 [1, 16]: 3.42 µM
IC50 [3, 16]: 0.23 µM
IC50 [4, 17]: > 50 µM
IC50 [5, 18]: > 50 µM

SMILES: CO[C@@H]1[C@@H](O)[C@@H](O)[C@H](Oc2ccc3cc(NC(=O)c4cccc(N)c4)c(=O)oc3c2C)OC1(C)C [compound 19, 3-Amino-N-(7-((2R,3R,4S,5R)-3,4-dihydroxy-5-methoxy-6,6-dimethyltetrahydro-2H-pyran-2-yloxy)-8-methyl-2-oxo-2H-chromen-3-yl)benzamide]
IC50 [1, 30]: 30.6 µM
IC50 [2, 30]: > 100 µM
IC50 [3, 30]: 3.65 µM
IC50 [7]: 14.7 ± 2.6 µM
IC50 ([4]; Homo sapiens, MCF7, Table 2, n = 3, read-out: IC50 MCF-7): 30.1 ± 3.4 µM
IC50 ([4]; Table 13, various sugars on 8-methyl coumarin, 72 hours, read-out: IC50 MCF7): 37.2 ± 2.1 µM
IC50 ([5]; Homo sapiens, SK-BR-3, Table 2, n = 3, read-out: IC50 SkBr3): 61.4 ± 4.7 µM
IC50 ([5]; Table 13, various sugars on 8-methyl coumarin, 72 hours, read-out: IC50 SKBr3): 12.5 ± 0.7 µM
IC50 [8]: 12.5 ± 0.9 µM
IC50 [9]: 21.2 ± 2.2 µM
IC50 [10]: 24.8 ± 9.7 µM
